Measurements taken from PubChem BioAssay AID743134 (The Scripps Research Institute Molecular Screening Center, 2013).
Calls of active or inactive are those of the source.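 The calls were made as follows: active = compound cutting LYPLA1 and LYPLA2 activity by half or more in mouse liver, kidney or brain after 5 mg/kg; inactive = the rest.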

Target: Acyl-protein thioesterase 1 (Mus musculus) (UniProt P97823)
Assay: in vivo LYPLA1 target engagement in mouse tissues, late-stage follow-up, in vivo study for LYPLA1/LYPLA2 inhibitor project, mouse liver, brain, kidney proteomes, fluorescence gel (AID 743134)
Details: C57BL6 mice i.p., tissue gel-based ABPP FP-Rh, 4 h

Acyl-protein thioesterase 1 (Mus musculus), sequence (P97823 whole entry, looked up): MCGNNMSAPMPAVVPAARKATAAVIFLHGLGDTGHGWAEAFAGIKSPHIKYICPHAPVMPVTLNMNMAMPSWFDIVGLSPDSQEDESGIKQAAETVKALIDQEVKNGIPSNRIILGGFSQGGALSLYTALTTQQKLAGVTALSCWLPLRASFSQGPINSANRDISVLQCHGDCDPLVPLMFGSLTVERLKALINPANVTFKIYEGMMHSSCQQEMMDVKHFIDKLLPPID

O=C(ON1C(=O)C2CN(C(=O)N3CCOCC3)CCN2C1=O)N1CCC(CCc2ccc(Cl)cc2)CC1 (stereo not drawn) was tested, and the outcome (Brain soluble proteome) was “inactive”, the outcome (Kidney soluble proteome) was “active” and the outcome (Liver soluble proteome) was “active”.
